Results on eleven molecules are retold here after patent publication US4873232A, “Novel use for carbamoyl benzoates” (Syntex, priority 1986, dated 1989).

The test system of data set [1] is Carrageenan-induced paw edema in the rat. The data set can be described thus: Carrageenan-induced paw edema in rat. Format: in vivo, rat (female albino, Sim:(SD)fbr). Conditions: one hour prior to carrageenan. An excerpt:
1. Carrageenan-induced paw edema in the rat. […] A solution of carrageenan injected into the foot pad of a rat causes reddening, swelling and pain which is maximal three to six hours after administration and then resolves. […] Immuno-suppressive agents are not effective under these circumstances.
Carrageenan-induced Paw Edema in Rat
Method: Test for Determining Anti-Inflammatory Activity Utilizing Carrageenan-Induced Paw Inflammation in Rats
The method used was basically that of Winter, et al. (See, Winter, C.A., Risley, E.A., and Nuss, G.W.: Carrageenan-induced edema in hind paw of the rat as an assay for anti-inflammatory drugs, Proc. Soc. Exp. Biol. Med. 111:544-547, 1962.) Female albino rats (Sim: (SD)fbr) weighing 80-90 g received the test material p.o. in 1 ml aqueous vehicle at hour zero (0 hr). One hour later (hr 1), 0.05 ml of a 1% solution (in aqueous 0.9% NaCl) or carrageenan was injected into the right hind paw to inflame the paw. The rats were sacrificed at hour 4, at which time both hind paws were removed and individually weighed. The percent increase in the weight of the inflamed paw over that of the opposite non-inflamed paw was calculated.
On the technique in general: In the carrageenan paw model, swelling and tenderness develop within hours.

The nature of data set [2]: Ability to cause gastro-intestinal erosion in rats. Also noted: species or system rat (male Lai:COX (SD)). The settings on record: rat, in vivo. On the procedure:
Method: Test for Ability to Cause Gastro-Intestinal Erosion in Rats
Male Lai: COX (SD) rats weighing 200-250 g were acclimated for one week under standard laboratory conditions. Each animal was individually identified and body weights were determined on the first day of the test and again at autopsy. The test materials, suspended in aqueous carboxymethyl cellulose vehicle, were administered orally once daily in a volume of 1.0 ml per 100 g body weight for seven consecutive days. Food was withdrawn from the animals following the last dose and the animals were sacrificed 24 hours later. At necropsy, the stomach and intestines were removed and observed for lesions. […] The highest test dose level producing no detectable lesions is reported.

Data set [3] relates to Adjuvant-induced Arthritis in Rat. The data set can be described thus: Adjuvant-induced Arthritis in rat. Format: in vivo, rat (female Hla:(SD) BR). Conditions: oral.
Data set [4] has as its system Experimental Allergic Encephalomyelitis in Rat. The data set can be described thus: Experimental Allergic Encephalomyelitis in rat. Format: in vivo, rat (female LEW/Crl BR). Conditions: for Body Wt.: day 17. The source says: 3. Experimental allergic encephalomyelitis in the rat. […] A mixture of syngeneic spinal cord homogenate in Freund's Complete Adjuvant injected subcutaneously into the rat induces an […] response directed against the myelin covering the nerves of the central nervous system. […] These symptoms result from attack of immune cells on the nerves with subsequent destruction and loss of ability to transmit the nervous impulses necessary for controlling muscle function. […] This is consistent with the general immuno-suppressive effects of this drug. Corticosteroid treatment also prevents the appearance of paralytic symptoms, but the dose of corticosteroid required is such that the corticosteroid itself causes weight loss greater than that produced by the disease alone. In contrast to their action in Adjuvant-inducted Arthritis in the rat, aspirin-like drugs are completely ineffective in preventing the symptoms and weight loss of experimental allergic encephalomyelitis.
Experimental Allergic Encephalomyelitis in Rat
Method: Test for Inhibition of Experimental Allergic Encephalomyelitis Induced in Rats
Female LEW/Crl BR rats weighing 125-135 g were randomly assigned to treatment groups of ten animals. Experimental allergic encephalomyelitis was induced by injecting into the right hind paw of each animal 0.1 ml of an emulsion containing 15 mg (wet weight) of syngeneic spinal cord tissue, 0.06 ml of Freund's Incomplete Adjuvant (Difco), 0.04 ml of sterile 0.9% saline and 0.2 mg of heat-killed, dried Mycobacterium butyricum (Difco). Test materials prepared as solutions or suspensions in aqueous carboxymethyl cellulose vehicle were administered orally each day for 16 days, starting on the day of injection. Animals were individually identified and weighed on day one, and again on day 17.

The subject of data set [5] is Gastro-Intestinal Erosion in Rats. Conditions: background, in words; cited from earlier work.
In data set [6] the test system is Experimental Allergic Encephalomyelitis in Rat. Conditions: daily treatment, background; cited from earlier work.
The test system of data set [7] is Adjuvant-induced Arthritis in Rat. Conditions: daily administration of appropriate doses, background; cited from earlier work.
Where [8] appears, read: oral dose 10 mg/kg, * = not significant.
Setting [9] is: oral dose 30 mg/kg, * = not significant.
The mark [10] stands for this setting: oral dose 100 mg/kg, * = not significant.
The mark [11] stands for this setting: oral 10 mg/kg daily for 16 days.
Where [12] appears, read: oral 50 mg/kg daily for 16 days.
Setting [13] is: oral once daily for seven days, read-out: Minimum Dose causing G.I. Erosions.

Molecules are shown by their SMILES. Read-outs that look alike come from different tables or passages of the source.

Take `Cc1cccc(N)c1C(=O)O` [2-Amino-6-methylbenzoic acid, 2-amino-6-methyl-benzoic acid, reference compound]: the “Inhibition of Hind Paw Weight Increase” value in data set [1] (setting [8]) worked out at 5; in data set [1] (setting [9]), 7; in data set [1] (setting [10]), 0. Also, the NOAEL at 168 h in data set [2] (po) was greater than 250 mg/kg/day. For the same molecule, in data set [3] (at 50 mg/kg, n.s.), the “Inhibition of Adjuvant Arthritis” value was 0%. Also, the “Body Wt.” value in data set [4] (oral 2 mg/kg daily for 16 days) is recorded as 153 ± 5.2 gm; in data set [4] (setting [11]), 145 ± 4.1 gm; in data set [4] (setting [12]), 141 ± 4.0 gm.
For `Cc1cccc(NC(=O)OCC(C)C)c1C(=O)O` [2-isobutoxycarbonylamino-6-methylbenzoic acid], the “Inhibition of Hind Paw Weight Increase” value in data set [1] (setting [10]) was found to be 23. Further, in data set [2] (setting [13]), the NOAEL at 168 h is greater than 100 mg/kg/day. In data set [3] (at 50 mg/kg, n.s.), the “Inhibition of Adjuvant Arthritis” value is recorded as 0%.
On to `O=C(O)c1ccccc1Nc1cccc(C(F)(F)F)c1` [Flufenamic acid, reference compound], for which the entries for the “Inhibition of Hind Paw Weight Increase” value in data set [1] (setting [8]) and in data set [1] (setting [10]) were 35 and 52, respectively. Besides, the NOAEL at 168 h in data set [2] (po) was 35 mg/kg/day. Moreover, the “Inhibition of Adjuvant Arthritis” value in data set [3] (at 35 mg/kg) is 80%. Moreover, in data set [5], the “gastro-intestinal effects associated with aspirin-like drugs” value is reported as “gastro-intestinal (ulcerogenic) effects”. Moreover, the “Body Wt.” value in data set [4] (oral 30 mg/kg daily for 16 days) stood at 135 ± 2.4 gm; in data set [4] (oral 100 mg/kg daily for 16 days), 128 ± 2.1 gm.
On to `O=C(Nc1ccccc1C(=O)O)OCc1ccccc1` [2-Benzyloxycarbonyl-aminobenzoic acid, 2-benzyloxycarbonylaminobenzoic acid], for which the “Body Wt.” value in data set [4] (oral 2 mg/kg daily for 16 days) was determined as 131 ± 3.6 gm; in data set [4] (setting [11]) it was 141 ± 6.3 gm.
As for `CCOC(=O)Nc1cccc(C)c1C(=O)O` [2-Ethoxycarbonylamino-6-methylbenzoic acid], the “Inhibition of Hind Paw Weight Increase” value in data set [1] (setting [8]) worked out at 9; in data set [1] (setting [9]), 13; in data set [1] (setting [10]), 12. Further, in data set [2] (setting [13]), the NOAEL at 168 h was greater than 100 mg/kg/day. Further, in data set [3] (at 50 mg/kg, n.s.), the “Inhibition of Adjuvant Arthritis” value came to 30%. In addition, the entries for the “Body Wt.” value in data set [4] (oral 5 mg/kg daily for 16 days), in data set [4] (setting [11]) and in data set [4] (oral 25 mg/kg daily for 16 days) were 164 ± 4.9 gm, 155 ± 3.7 gm and 154 ± 6.0 gm, respectively.
`COc1cc(NC(=O)OCc2ccccc2)c(C(=O)O)cc1OC` [2-benzyloxycarbonylamino-4,5-dimethoxybenzoic acid]: the “Body Wt.” value in data set [4] (oral 2 mg/kg daily for 16 days) amounted to 142 ± 5.3 gm; in data set [4] (setting [11]) it was 144 ± 3.9 gm.
Consider `O=P1(N(CCCl)CCCl)NCCCO1` (stereo not drawn) [cyclophosphamide], for which, in data set [6], the “effect on weight loss and paralysis in experimental allergic encephalomyelitis” value is “gives protection from the weight loss and paralysis”. In data set [7], the “control of manifestations of Adjuvant-induced arthritis” value is reported as “effectively controlled”.
Take `C[C@@H]1C[C@H]2[C@@H]3CCC4=CC(=O)C=C[C@]4(C)[C@@]3(F)[C@@H](O)C[C@]2(C)[C@@]1(O)C(=O)CO` [Dexamethasone, reference compound]: the “Inhibition of Hind Paw Weight Increase” value in data set [1] (oral dose 0.1 mg/kg) was found to be 71. For the same molecule, in data set [4] (oral 0.25 mg/kg daily for 16 days), the “Body Wt.” value worked out at 130 ± 0.4 gm. For the same molecule, the “% Animals With Paralysis” value in data set [4] (oral 0.25 mg/kg daily for 16 days, observed days 12-17) was found to be 0%.
For the molecule `CCOC(=O)Nc1cc(OC)c(OC)cc1C(=O)O` [2-ethoxycarbonylamino-4,5-dimethoxybenzoic acid], in data set [2] (setting [13]), the NOAEL at 168 h is greater than 100 mg/kg/day. For the same molecule, in data set [3] (at 50 mg/kg, n.s.), the “Inhibition of Adjuvant Arthritis” value came to 0%. Besides, the “Body Wt.” value in data set [4] (oral 2 mg/kg daily for 16 days) was found to be 157 ± 4.0 gm; in data set [4] (setting [11]), 137 ± 5.7 gm; in data set [4] (setting [12]), 154 ± 5.8 gm.
In the case of `CCOC(=O)Nc1ccccc1C(=O)O` [2-Ethoxycarbonyl-aminobenzoic acid, 2-ethoxycarbonylaminobenzoic acid], the “Body Wt.” value in data set [4] (oral 2 mg/kg daily for 16 days) is recorded as 150 ± 4.2 gm; in data set [4] (setting [11]) it was 162 ± 3.4 gm; in data set [4] (setting [12]), 151 ± 4.4 gm.
For `Cc1cccc(NC(=O)OCc2ccccc2)c1C(=O)O` [2-benzyloxycarbonylamino-6-methylbenzoic acid], the “Inhibition of Hind Paw Weight Increase” value in data set [1] (setting [10]) is listed as 10. The “Body Wt.” value in data set [4] (setting [11]) was 146 ± 3.6 gm.
